According to ChEMBL document CHEMBL4330083, “Synthesis and evaluation of isoprenylation-resveratrol dimer derivatives against Alzheimer's disease” (Eur J Med Chem, 2019):
Activity calls are given as the source filed them. The rule behind the calls is not given here.

How the values were obtained:
[1] = molecular target: T1, Amine oxidase [flavin-containing] A (Homo sapiens, UniProt P21397); test: Inhibition of human MAO-A preincubated for 15 mins followed by p-tyramine substrate addition and measured after 20 mins by Amplex red reagent based fluorescence assay
T1 sequence (P21397 whole entry): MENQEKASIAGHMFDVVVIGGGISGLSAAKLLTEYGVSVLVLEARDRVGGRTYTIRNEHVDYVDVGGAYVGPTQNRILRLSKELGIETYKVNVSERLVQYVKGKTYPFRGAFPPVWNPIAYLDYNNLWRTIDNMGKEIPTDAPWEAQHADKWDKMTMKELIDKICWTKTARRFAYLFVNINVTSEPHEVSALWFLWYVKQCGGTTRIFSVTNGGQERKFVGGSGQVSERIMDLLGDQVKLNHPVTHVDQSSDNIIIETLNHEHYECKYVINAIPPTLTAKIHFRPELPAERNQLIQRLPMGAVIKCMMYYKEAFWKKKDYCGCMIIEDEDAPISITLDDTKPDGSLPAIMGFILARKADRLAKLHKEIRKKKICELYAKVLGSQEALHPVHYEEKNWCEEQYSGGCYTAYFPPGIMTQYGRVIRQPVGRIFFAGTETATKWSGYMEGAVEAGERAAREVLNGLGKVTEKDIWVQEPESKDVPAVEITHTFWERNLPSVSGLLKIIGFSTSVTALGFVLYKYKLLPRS

[2] = molecular target: T2, Amine oxidase [flavin-containing] B (Homo sapiens, UniProt P27338)
T2 sequence (P27338 whole entry): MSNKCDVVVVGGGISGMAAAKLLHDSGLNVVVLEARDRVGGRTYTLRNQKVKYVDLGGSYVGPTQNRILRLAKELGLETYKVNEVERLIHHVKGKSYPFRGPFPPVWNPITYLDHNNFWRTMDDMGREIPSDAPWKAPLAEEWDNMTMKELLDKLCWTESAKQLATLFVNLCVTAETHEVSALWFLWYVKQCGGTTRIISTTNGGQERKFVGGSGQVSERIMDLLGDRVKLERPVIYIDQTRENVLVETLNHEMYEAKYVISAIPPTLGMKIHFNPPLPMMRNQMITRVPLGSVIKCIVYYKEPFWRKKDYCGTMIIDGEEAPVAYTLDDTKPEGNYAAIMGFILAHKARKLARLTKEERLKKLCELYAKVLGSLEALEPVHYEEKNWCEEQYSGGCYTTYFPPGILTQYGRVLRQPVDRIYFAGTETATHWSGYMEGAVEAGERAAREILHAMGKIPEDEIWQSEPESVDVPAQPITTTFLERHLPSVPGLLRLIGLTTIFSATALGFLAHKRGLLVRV

Homo sapiens [3] = species on record: Homo sapiens; test: Selectivity ratio of IC50 for human MAO-A to IC50 for human MAO-B
[4] = Antioxidant activity assessed as inhibition of DPPH free radical after 30 mins by UV-Visible spectrophotometric analysis; assay type: functional
[5] = Antioxidant activity assessed as ABTS radical cation scavenging activity by measuring trolox equivalents after 150 mins; assay type: functional
[6] = Antioxidant activity assessed as ferric ion reduction by measuring trolox equivalents after 3 to 5 mins by FRAP assay; assay type: functional
PC-12 [7] = test: Neuroprotection against H2O2-induced cell death in rat PC12 cells at 6.25 to 25 uM preincubated for 4 hrs followed by H2O2 addition measured after 24 hrs by MTT assay; assay type: functional, cell-based
PC-12 [8] = test: Neuroprotection against rotenone-induced cell death in rat PC12 cells preincubated for 4 hrs followed by rotenone addition measured after 24 hrs by MTT assay; assay type: functional, cell-based
PC-12 [9] = test: Neuroprotection against oligomycin A-induced cell death in rat PC12 cells preincubated for 4 hrs followed by oligomycin A addition measured after 24 hrs by MTT assay; assay type: functional, cell-based
PC-12 [10] = test: Neurotoxicity in rat PC12 cells at 30 uM after 24 hrs by MTT assay; assay type: toxicity, cell-based; conditions: pc-12, 24 h
PC-12 [11] = test: (§1) Neuroprotection against H2O2-induced oxidative damage in rat PC12 cells assessed as reduction in ROS production preincubated for 4 hrs followed by H2O2 addition and measured after 24 hrs by DCFH-DA staining-based flow cytometric analysis; assay type: functional, cell-based
PC-12 [12] = test: as §1, with “production by measuring mean fluorescence intensity at 5 uM” for “production”, “addition” for “addition and”, “analysis (reference value: 102489)” for “analysis”; assay type: functional
PC-12 [13] = test: as §1, with “production by measuring mean fluorescence intensity at 10 uM” for “production”, “addition” for “addition and”, “analysis (reference value: 102489)” for “analysis”; assay type: functional
PC-12 [14] = test: Neuroprotection against H2O2-induced oxidative damage in rat PC12 cells assessed as late apoptotic cells at 2.5 uM after 24 hrs in presence of H2O2 by annexin V-FITC/propidium iodide staining based flow cytometric analysis (reference value: 6.2%); assay type: functional
PC-12 [15] = test: Neuroprotection against H2O2-induced oxidative damage in rat PC12 cells assessed as viable cells at 2.5 uM after 24 hrs in presence of H2O2 by annexin V-FITC/propidium iodide staining based flow cytometric analysis (reference value: 64.1%); assay type: functional; conditions: PC-12, 24 h, read-out: Activity
Homo sapiens [16] = species on record: Homo sapiens; test: Neuroprotection against LPS-induced inflammation in […] cells assessed as reduction in nitric oxide production at 10 to 25 uM after 18 hrs by Griess reagent based assay; assay type: functional, cell-based
Homo sapiens [17] = species on record: Homo sapiens; test: Neuroprotection against LPS-induced inflammation in […] cells assessed as reduction in ROS production after 18 hrs by DCFH-DA staining-based flow cytometric analysis; assay type: functional, cell-based
[18] = Neuroprotection against LPS-induced inflammation in […] cells assessed as reduction in ROS production by measuring mean fluorescence intensity at 5 uM after 18 hrs by DCFH-DA staining-based flow cytometric analysis (reference value: 56792); assay type: functional
Homo sapiens [19] = species on record: Homo sapiens; test: Antiinflammatory activity in […] cells assessed as inhibition of LPS-induced TNF-alpha release preincubated for 1 hr followed by LPS addition measured after 18 hrs by ELISA; assay type: functional, cell-based
in vitro = test: in vitro; design: dose or concentration left out as unconfirmed; conditions: PAMPA
Description: Effective permeability of the compound at 100 mg/ml incubated for 16 hrs by PAMPA-BBB assay

PC-12 [20] = test: Neuroprotection against H2O2-induced oxidative damage in rat PC12 cells assessed as mitochondrial membrane potential at 2.5 uM after 24 hrs in presence of H2O2 by Jc-1 staining based flow cytometric analysis (reference value: 16.35 +/- 3.19%); assay type: functional
PC-12 [21] = test: Neuroprotection against H2O2-induced oxidative damage in rat PC12 cells assessed as mitochondrial membrane potential at 5 uM after 24 hrs in presence of H2O2 by Jc-1 staining based flow cytometric analysis (reference value: 16.35 +/- 3.19%); assay type: functional
[22] = Neuroprotection against H2O2-induced inflammation in […] cells assessed as reduction in ROS production by measuring mean fluorescence intensity at 5 uM after 18 hrs by DCFH-DA staining-based flow cytometric analysis (reference value: 11273); assay type: functional
[23] = Neuroprotection against H2O2-induced inflammation in […] cells assessed as reduction in ROS production by measuring mean fluorescence intensity at 10 uM after 18 hrs by DCFH-DA staining-based flow cytometric analysis (reference value: 11273); assay type: functional

SMILES	IC50 [1] [µM]	IC50 [2] [µM]	Ratio IC50 (Homo sapiens [3])	IC50 [4] [µM]	Activity [5] [equiv]	Activity [6] [equiv]	Activity (PC-12 [7])	Activity (PC-12 [8])	Activity (PC-12 [9])	Activity (PC-12 [10])	Activity (PC-12 [11])	Activity (Homo sapiens [16])	Activity (Homo sapiens [17])	inhibition (Homo sapiens [19])	Papp at 16 h (in vitro) [×10⁻⁶ cm/s]	also measured
CC(C)=CCc1c(O)cc(/C=C/c2ccc3c(c2)[C@H](c2cc(O)c(CC=C(C)C)c(O)c2)[C@@H](c2ccc(O)cc2)O3)cc1O	2.6	0.92	2.83	47	1.43	1.74	Active	Dose-dependent effect	Dose-dependent effect	Non-Toxic	Dose-dependent effect	Active	Dose-dependent effect	Dose-dependent effect	10.1	Flu intensity (PC-12 [12]): 85417; Flu intensity (PC-12 [13]): 25470; Activity (PC-12 [14]): 4.2%; viability at 2.5 µM (PC-12 [15]): 75.9%; Flu intensity [18]: 28450
CC(C)=CCc1c(O)cc(/C=C/c2ccc3c(c2)[C@H](c2cc(O)c4c(c2)OC(C)(C)CC4)[C@@H](c2ccc(O)cc2)O3)cc1O	8.12	3.93	2.07	35.3	1.7	1.97	Active	Dose-dependent effect	Dose-dependent effect	Non-Toxic	Dose-dependent effect	Active	Dose-dependent effect	Dose-dependent effect	6.92	Activity (PC-12 [20]): 42.34%; Activity (PC-12 [21]): 68.51%; Flu intensity [22]: 9218; Flu intensity [23]: 7407
